Residues, ends and D or L forms follow the SMILES beside them.

logP and logD data for 129 molecules are collected here from the SangsterLogP compilation.

A short description of the first series: method code SF, from Hansch, C. & Leo, A. (1987). Log P database [Dataset]. Pomona College Medicinal Chemistry Project.
Conditions: not given
For the molecule `CCCCC1OC(=O)c2cc(NC(C)=O)ccc21` (centres undefined), the logP (commonly the decadic logarithm of the partition coefficient of the neutral form, usually between octanol and water) turned out to be 2.77.
On the same count and under the same terms, in the case of `N=C(N)NS(=O)(=O)c1ccc(N)cc1` it was -1.22.
`CC(=O)Oc1ccc(N=C2C=CC(=O)C=C2)cc1` showed a logP of 1.43.
Same read-out and setting: the value for `CC1=Nc2cc(C)ccc2S(=O)(=O)N1` was 0.74.
Same read-out and setting: in the case of `COc1ccccc1C` it was 2.74; in that of `Cc1oc2cc(OCC#N)ccc2c(=O)c1C`, 1.96.
Same read-out and setting: in the case of `CCC(C)C1=Nc2ccc(Cl)cc2S(=O)(=O)N1` (centres undefined) it was 2.47; in that of `CC=NO`, -0.13; in that of `NC(=O)c1ccoc1`, 0.09.
In turn, `O=NN(CCCl)C(=O)NC1CS(=O)(=O)CS(=O)(=O)C1` returned a logP of -0.94.
Same read-out and setting: in the case of `CC1CCCCC1(C)NC(=O)N(CCCl)N=O` (centres undefined) it was 2.57; in that of `CC(=O)N(C)/N=N/c1ccc(C)cc1`, 3.23; in that of `CN(C)c1ccc([N+]([O-])=NC#N)cc1`, 2.3.
`c1ccc2[nH]c(CCCCc3nc4ccccc4[nH]3)nc2c1`: the logP stood at 1.59.
Same read-out and setting: the value for `CCOC(=O)Cn1ccnc1C=Cc1ccc([N+](=O)[O-])o1` was 1.27; that for `COc1ccc(-c2ncc[nH]2)c(OC)c1` was 1.72.
On the same count and under the same terms, the value for `CCN(CC)CCNc1ccc(C)c(Cl)c1` was 4.14; that for `Nc1ncc2ncn(COCCO)c2n1` was -0.96; that for `c1ccc2cnncc2c1` was 0.57.
As to `Nc1nc(=O)c2ccccc2o1`, the log partition coefficient (logP) came out at 0.27.
The same measure, in the same setting: the value for `CC(=S)Nc1ccccc1` was 1.71.
The same measure, in the same setting: the value for `CNP(=O)(OC)Oc1ccc(Cl)cc1Cl` (centres undefined) was 2.41; that for `Nc1nc2ccccc2c(=O)[nH]1` was 0.6; that for `Cc1ccc2c(=O)[nH]c(=O)[nH]c2c1` was 0.55.
Still for that read-out and setting: the value for `O=C1CCCCO1` was -0.35.
Molecule `CC(C)CN(CC(C)C)C(=O)C=Cc1ccc2c(c1)OCO2` had a logP of 4.37.
Same read-out and setting: the value for `OC(O)(C(F)(F)F)C(F)(F)F` was 1.46; that for `CNP(=O)(OC)Oc1ccc(C(C)(C)C)cc1` (centres undefined) was 2.71.
On the same count and under the same terms, in the case of `CC(=O)Nc1cccs1` it was 1.1.
Still for that read-out and setting: the value for `COc1cccc(OC(=O)N(C)C)c1` was 1.6; that for `CC(C)(C)c1ccc(C(N)=O)cc1` was 2.51; that for `Nc1c2ccccc2nc2ccccc12` was 2.74.
`O=CNc1nccs1` had a logP of 0.54.
Same read-out and setting: in the case of `COc1ccc(C=C(C(C)=O)C(C)=O)c(OC)c1` it was 1.88.
Still for that read-out and setting: the value for `COC(=O)Cc1ccsc1` was 1.46; that for `COc1cc2c(c3c1c(=O)c1ccccc1n3C)C=CC(C)(C)O2` was 3.67.
For the molecule `Nc1cccc2c1C(=O)c1ccccc1C2=O`, the logP was 2.87.
On the same count and under the same terms, the value for `O=C(OCCOCCO)c1ccccc1` was 1.16.
On the same count and under the same terms, in the case of `CCOC(=O)C(=Cc1ccc(Cl)cc1Cl)C(C)=O` it was 3.67; in that of `FC(F)(F)C(F)(F)c1ccccc1`, 3.36; in that of `CN(C)c1cnnc(N(C)C)c1`, 0.84.
The same measure, in the same setting: the value for `Cc1ccc2[nH]c(CCCCCCc3nc4cc(C)ccc4[nH]3)nc2c1` was 1.76; that for `O=c1nc[nH]c(=O)[nH]1` was -1.87; that for `CC(=O)CCC(=O)N(C)c1ccc(S(=O)(=O)N(C)C)cc1` was 0.2.
In turn, `CC(=O)Nc1ccc2c(c1)S(=O)(=O)c1ccccc1C2=O` came in with a logP of 2.35.
On the same count and under the same terms, the value for `CCOC(=O)C(=Cc1cccc(OCC)c1)C(C)=O` was 2.71; that for `C=C(F)F` was 1.24.
On the same count and under the same terms, in the case of `CC[N+](=O)[O-]` it was 0.18; in that of `NC(=O)c1cccc(O)c1`, 0.39.
Still for that read-out and setting: the value for `COc1cccc(OC)n1` was 2.3; that for `Nc1ccccc1I` was 2.32.
With `CN(C)Cc1cccs1`, the logP was 1.67.
On the same count and under the same terms, the value for `O=C(c1ccccc1)C(F)(F)F` was 2.15.
Same read-out and setting: in the case of `COC1OC(=O)c2ccccc21` (centres undefined) it was 1.
On to `O=C1OC(O)c2ccccc21` (centres undefined), for which the logP worked out at 0.57.
The same measure, in the same setting: the value for `Nc1nc(O)c2nc[nH]c2n1` was -0.91.
With `O=C(O)CCCc1c[nH]c2ccccc12`, the logP came to 2.3.
Same read-out and setting: in the case of `CCCN(CCC)/N=C/c1c2c(O)c3c(O)c(C)c4c(c3c1O)C(=O)C(C)(O/C=C\C(OC)C(C)C(OC(C)=O)C(C)C(O)C(C)C(O)C(C)/C=C\C=C(C)C(=O)N2)O4` (centres undefined) it was 3.83; in that of `C1OC1CN1CCN(CC2CO2)CC1` (centres undefined), -0.84; in that of `Cc1ccc2[nH]c(CCc3nc4cc(C)ccc4[nH]3)nc2c1`, 1.39.
`CC(=O)C(=Cc1ccc(Br)cc1)C(C)=O` came in with a logP of 2.75.
On the same count and under the same terms, the value for `O=C(C(=O)c1ccco1)c1ccco1` was 1.24; that for `O=[N+]([O-])c1ccccc1C(F)(F)F` was 2.58; that for `CCOC(=O)C(=Cc1ccc(Cl)c(Cl)c1)C(C)=O` was 3.92.
On the same count and under the same terms, in the case of `CC(C)(C)C` it was 3.11; in that of `CCOC(=O)C(=Cc1ccc(OC)c(OC)c1)C(=O)OCC`, 2.89.
`N#CC(=Cc1ccccc1)C(=O)Nc1ccccc1` came in with a lipophilicity (logP) of 3.41.
Same read-out and setting: the value for `O=c1[nH]c2ccccc2[nH]c1=O` was 0.2; that for `CCOCCOC(=O)C(C#N)=C(CC)NCc1ccc([N+](=O)[O-])cc1` was 2.64.
On the same count and under the same terms, the value for `O=C(CNC(=O)c1ccccc1)Oc1cccc(Cl)c1` was 3.21; that for `C#CC(C)(C)O` was 0.28.
The same measure, in the same setting: the value for `O=Cc1ccc2c(c1)OCO2` was 1.05.
In turn, `CCSc1ccccc1` showed a logP of 3.2.
The same measure, in the same setting: in the case of `Cc1cc(CSc2ccccc2C(C)C)c(O)c(C(=O)O)c1` it was 4.36; in that of `CNC(=O)COc1ccccc1`, 1.02; in that of `COc1cc2c(c(OC)c1OC)-c1ccc(O)c(=O)cc1[C@@H](N)CC2`, 0.26.
Still for that read-out and setting: in the case of `CC(=O)Nc1ccc(C(C)(C)C)cc1` it was 3.05; in that of `FC(F)(F)C(F)(F)C(F)(F)C(F)(F)C(F)(F)F`, 4.4.
Regarding `C=C1C(=O)O[C@@H]2/C=C(\C)CC/C=C(\C)CC[C@@H]12`, the logP came to 2.09.
Same read-out and setting: in the case of `O=c1[nH]ncc2ccccc12` it was 0.75.
For the molecule `COC(=O)c1ccc[nH]1`, the logP came to 1.17.
The same measure, in the same setting: the value for `CC(C)(C)c1ccccc1OCC(=O)O` was 3.33; that for `CCOC(CCC#N)OCC` was 0.75.
Same read-out and setting: in the case of `CCOC(=O)CC(=O)C=Cc1cccc(C)c1` it was 2.8.
In the case of `O=S1(=O)NC(c2ccccc2)=Nc2ccccc21`, the logP was found to be 1.78.
Same read-out and setting: the value for `CN(C)c1cccc2ccccc12` was 3.46; that for `COc1ccccc1OC` was 1.79.
The same measure, in the same setting: the value for `CC(C)c1ccccc1OC(=O)N(C)C` was 2.65; that for `COc1ccccc1OC(C)=O` was 1.38; that for `O=[N+]([O-])c1ccc(/C=C/c2cccc(CO)n2)o1` was 1.37.
Still for that read-out and setting: in the case of `CC(F)F` it was 0.75; in that of `CCc1ccco1`, 2.4.
For the molecule `CC(=O)Nc1cn[nH]c1`, the lipophilicity (logP) is -0.38.
As for `CSc1ccccc1NC(C)=O`, the log partition coefficient (logP) amounted to 1.53.
On the same count and under the same terms, the value for `CCC1(C)CCC(=O)NC1=O` (centres undefined) was 0.23; that for `NC(=O)/C=C/c1ccc2c(c1)OCO2` was 1.4.
Consider `CCCCC1OC(=O)c2cc(O)ccc21` (centres undefined), for which the log partition coefficient (logP) worked out at 3.12.
The same measure, in the same setting: the value for `N#Cc1c(N)sc2ccccc12` was 2.17.
The same measure, in the same setting: in the case of `CNc1nc2ccccc2o1` it was 1.82; in that of `NC(=O)[C@H](Cc1ccccc1)NC(=O)[C@@H](N)Cc1ccccc1` (H-Phe-Phe-NH2), 1.13; in that of `COc1cc(OC)c(OC)c2c1CC[C@H](NC(C)=O)c1cc(=O)c(NCc3ccccc3)ccc1-2`, 3.58.
Still for that read-out and setting: the value for `C1=Cc2ccccc2C1` was 2.92; that for `Cc1ccc(C(O)c2ccccc2)cc1` (centres undefined) was 3.13.
Turning to `NC(=O)c1ccccc1Br`, the logP was found to be 0.73.
Still for that read-out and setting: the value for `CCCCCc1cn[nH]c1` was 2.96; that for `C[C@@H]1CC[C@H](C)N1C(=O)Nc1ccccc1` was 2.33; that for `C[C@@H]1C[C@H]2[C@@H]3C[C@H](F)C4=CC(=O)C=C[C@]4(C)[C@@]3(F)[C@@H](O)C[C@]2(C)[C@@]1(O)C(=O)COC(=O)C(C)(C)C` was 3.86.

Still in this series, the particulars now being: pH 1.0.
As to `COC(=O)c1ccccc1C(=O)O`, the logD (as a rule, the decadic logarithm of the distribution of all forms, ionised or not, between an organic phase and buffer at a given pH) amounted to 1.13.
Same read-out and setting: in the case of `COc1ccccc1OCC(=O)O` it was 0.98.

Still in this series, the particulars now being: pH 2.0.
Regarding `O=C(O)c1cc2ccccc2[nH]1`, the pH-dependent lipophilicity (logD) worked out at 2.31.

The series is the same for the next values; noted with them: pH 7.0.
As to `CCCCOC(=O)c1cccnc1`, the logD is 2.27.
The same measure, in the same setting: in the case of `CC(=O)c1ccc(C(C)=O)cc1` it was 1.34; in that of `CC(=O)c1cccc(C#N)c1`, 1.16.
Same read-out and setting: in the case of `O=Cc1cccc([N+](=O)[O-])c1` it was 1.47; in that of `O=Cc1ccc([N+](=O)[O-])cc1`, 1.56.

Staying with this series, now noted: pH 7.2.
As for `CO/N=C(/C(=O)N[C@@H]1C(=O)N2C(C(=O)OC(C)OC(C)=O)=C(COC(N)=O)CS[C@@H]12)c1ccco1` (some centres undefined), the logD is 0.89.

The same series, now with this note: pH 7.4.
In the case of `NC(=O)c1ncccc1O`, the logD was 0.65.
Still for that read-out and setting: in the case of `CC(=O)Nc1ccccc1C(C)C` it was 1.71.
On the same count and under the same terms, the value for `Sc1ncnc2nc[nH]c12` was 0.01.
On the same count and under the same terms, the value for `CO[C@H]1O[C@H](CO)[C@@H](O)[C@H](NC(=O)N(C)N=O)[C@H]1O` was -1.45; that for `C=CCn1c(C)c(N(C)C)c(=O)n(-c2ccccc2)c1=O` was 1.44.
The molecule `N=c1ccccn1O` came in with a logD of -0.87.
On the same count and under the same terms, in the case of `Cc1c(N(C)C)c(=O)n(C)c(=O)n1-c1ccccc1` it was 1.19.
Same read-out and setting: in the case of `CSc1ccc2c(c1)C(c1ccccc1)=NCC(=O)N2` it was 2.92; in that of `CN(C)/N=N/c1ccccc1Cl`, 3.03.

The series is the same for the next values; noted with them: pH 11.0.
As for `c1cncc(CN2CCCCC2)c1`, the logD was found to be 1.49.

Still in this series, the particulars now being: pH 12.0.
Molecule `CCC[C@@H]1C[C@@H](C(=O)N[C@@H]([C@H]2O[C@H](SC)[C@H](O)[C@@H](O)[C@H]2O)[C@@H](C)O)N(CC)C1` registered a logD of 1.02.
On the same count and under the same terms, in the case of `CCCC1CC(C(=O)NC(C(C)Cl)C2OC(SCC)C(O)C(O)C2O)N(CC)C1` (centres undefined) it was 3.18.

Still in this series, the particulars now being: pH 12.3.
For `CCCC1CNC(C(=O)NC(C(C)O)C2OC(SC)C(O)C(O)C2O)C1` (centres undefined), the logD worked out at 0.04.
